Results published in patent US8772029B2, “Modulation of oocyte meiotic progression and oocyte activation” (Northwestern University, priority 2011, dated 2014).
Entries after “also recorded” stand apart in the source; their conditions may differ. Peptide text beside a SMILES is read from it. * marks the point of attachment. Cbz = O=C(OCc1ccccc1)*

Key:
MII eggs = assay: Activation of in vivo ovulated MII eggs (SrCl2, TPEN, ZnPT pre-treatment)
Method: Ovulated MII eggs were collected as described above. Eggs were transferred to KSOM medium with or without 10 μM ZnPT (1:1000 dilution of a 10 mM stock in DMSO) for exactly 5 minutes. Eggs were then washed in KSOM and allowed to recover for 10-15 minutes prior to activation. For SrCl2 activation, eggs were transferred to drops of calcium-free KSOM containing 10 mM SrCl2 for 2 hours, followed by 4 additional hours of culture in calcium-containing KSOM without SrCl2. TPEN activation was performed as previously described (Kim et al., 2011); eggs were cultured for 6 hours in KSOM containing 10 μM TPEN. Unactivated controls were cultured in KSOM for the same 6 hour time period to assess levels of spontaneous parthenogenesis.
MII eggs were treated with the ionophore zinc pyrithione (ZnPT) for 5 minutes to increase intracellular zinc. Following a 10-15 minute recovery period, eggs were then treated with activating agents SrCl2 or TPEN.

[1] = test system: zinc-insufficient oocytes; assay: Spindle phenotype scoring after IVM in TPEN with proteasome inhibitor MG132 added after 10 h; format: cell-based, mouse; settings: TPEN 10 h, then TPEN + 20 μM MG132 6 h
Method: For IVM studies, immature female CD1 mice (17 to 21 day old) were injected with 5IU equine chorionic gonadotropin (eCG) (Calbiochem, La Jolla, CA) in 100 μL sterile phosphate-buffered saline (PBS), intraperitoneally. After 44 to 48 hours, mice were anesthetized using isoflurane and euthanized by cervical dislocation. Dissected ovaries were placed in Leibovitz L-15 medium containing 1% FBS (L-15/FBS) and 0.2mM 3-isobutyl-1-methylxanthine (IBMX), and large antral follicles were punctured using 28 gauge needles to release cumulus oocyte complexes (COCs). COCs were washed through several drops of culture medium consisting of Minimum Essential Medium (MEM)-alpha with GLUTAMAX supplemented with 10% FBS, 1.5IU/mL human chorionic gonadotropin (hCG), and 5ng/mL epidermal growth factor and placed in culture medium with or without 10 μM N,N,N′,N′-tetrakis(2-pyridylmethyl) ethylenediamine (TPEN). In some experiments Z-Leu-Leu-Leu-al (MG132) was added to culture medium at 20 μM. COCs were cultured in drops of pre-equilibrated medium covered with embryo quality mineral oil at 37° C. in 5% CO2 with a humid environment. Ovulated MII eggs were collected from 4 to 6 week old mice primed with 5IU PMSG followed 48 h later by 5IU hCG. Oviducts were dissected into L-15/FBS, and eggs were removed and treated with 0.03% (w/v) hyaluronidase to remove cumulus cells. Eggs were washed and cultured in potassium simplex optimized medium (KSOM) (Millipore, Billerica, MA) covered with embryo quality mineral oil at 37° C. in 5% CO2.
Oocytes were denuded of cumulus cells and fixed in a microtubule stabilizing buffer (Ibanez et al., 2005) containing 2% formaldehyde and 1% Triton X-100 for 30 min at 37° C. Oocytes were washed and blocked in PBS containing 0.1M glycine, 3mg/mL BSA, 0.01% Tween 20, and 0.01% sodium azide for at least 1 h and were stored in blocking solution at 4° C. for up to 2 weeks. Oocytes were incubated with anti-tubulin antibody (1:100) for 1 h at 37C. followed by three washes in blocking solution. They were then incubated for 1 h in AlexaFluor-488 conjugated anti-mouse secondary antibody (5μg/mL) and rhodamine-phalloidin (2U/mL), washed three additional times, and mounted in VECTASHIELD with DAPI. Microscopy was performed using a Leica SP5 inverted laser-scanning confocal microscope with a 63x oil immersion objective (Leica Microsystems, Heidelberg, Germany). Images were processed using LAS AF software (Leica Microsystems).
It has been previously shown that zinc-insufficient oocytes fail to increase MPF activity following the first meiotic division and have low CCNB1 protein levels (Bernhardt et al., 2010). In order to determine whether this decrease in CCNB1 is the major cause of the observed meiotic arrest phenotype, it was tested whether increasing CCNB1 would be sufficient to rescue MII entry in zinc-insufficient oocytes by inhibiting the proteasome at the end of the MI-MII transition, thereby halting CCNB1 degradation. Experimental oocytes were cultured for 10 hours in TPEN-containing medium and were then transferred into medium containing TPEN as well as the proteasome inhibitor Z-Leu-Leu-Leu-al (MG132) at 20 μM concentration. MG132 was added after first polar body extrusion, because earlier addition would result in MI arrest due to failure to degrade APC/C targets that prevent cell division. Oocytes were cultured for an additional 6 h in the presence of MG132 to allow time for CCNB1 reaccumulation, for a total 16 h IVM culture period. Proteasome inhibition led to a partial rescue of the zinc insufficiency phenotype. 69% of treated oocytes formed spindle-like structures, and none were in telophase I arrest, despite being cultured in the presence of TPEN for the entire culture period (FIG. 2, A; Table 2).
A majority of zinc-insufficient oocytes treated with MG132 following the first meiotic division transition progress beyond telophase-I arrest and form MII spindle-like structures. […]

MPF activity = assay: Histone H1 kinase assay on single oocytes/eggs (MPF activity); format: cell-based, mouse; settings: TPEN 10 h, then TPEN + 20 μM MG132 6 h
Method: Histone H1 and myelin basic protein (MBP) dual kinase assays were performed as previously described (Svoboda et al., 2000). Dried gels were exposed to Kodak BIOMAX MR films for 12 to 72 hours at −80° C. using Kodak intensifying screens; films were developed, scanned, and analyzed using ImageJ software. Assays were performed on single oocytes, and densitometric analysis is expressed relative to levels in control eggs.

CCNB1 = assay: Western blot for CCNB1 in oocytes; format: cell-based, mouse; settings: TPEN 10 h, then TPEN + 20 μM MG132 6 h
Method: Western blotting was performed essentially as previously described (Bernhardt et al., 2010). Briefly, 15 to 50 cumulus-denuded oocytes were transferred in a minimal amount of medium to microcentrifuge tubes and immediately lysed in 8 μL of 1x SDSPAGE Sample Buffer (Laemmli, 1970). SDS-PAGE gels were run using the Invitrogen NuPAGE system and transferred to Immobilon-P PVDF membranes (Millipore, Billerica, MA). Blocking and antibody incubations were in 2% w/v ECL Advanced Blocking Reagent (Amersham) in TBS-T (20mM Tris, pH7.4, 137mM NaC1, 0.1% Tween20 v/v). Anti-CCNB1antibody was diluted 1:500, anti-FBXO43 was used at 1:1000 dilution, and anti-tubulin antibody was used at 1:10,000. HRP-conjugated secondary antibodies were diluted 1:10,000. Detection was performed using Amersham ECL Advanced detection reagent. BIOMAX MR films (Kodak, Rochester, NY) were exposed and developed, or an Alpha-Innotech (San Learndo, CA) MultiImage II system was used.

[Cl-].[Cl-].[Sr+2] [SrCl2]
egg activation (second polar body and PN or PN-like structures) (MII eggs; control MII eggs, by 6 hours post activation, 10 mM SrCl2 2 h or 10 μM TPEN 6 h): activated normally

zinc pyrithione [ZnPT]
MII spindle organisation after ZnPT (MII eggs; 10 μM ZnPT 5 minutes, unactivated eggs and SrCl2-treated eggs, 6 hours of culture): caused spindle abnormalities | egg activation by TPEN after ZnPT pre-treatment (MII eggs; MII eggs, 10 μM ZnPT 5 minutes, then 10 μM TPEN 6 h): formed second polar bodies and PN-like structures | egg activation by SrCl2 after ZnPT pre-treatment (MII eggs; MII eggs, 10 μM ZnPT 5 minutes, then 10 mM SrCl2): did not show signs of activation

CC(C)C[C@@H](C=O)NC(=O)[C@H](CC(C)C)NC(=O)[C@H](CC(C)C)NC(=O)OCc1ccccc1 [MG132, Z-Leu-Leu-Leu-al] (Cbz-Leu-Leu-Leu-aldehyde)
oocytes with some degree of MII spindle formation (spindle-like structures) [1]: 69% | MII (aligned metaphase plate) ([1]; n=26): 19% | other spindle phenotype ([1]; n=26): 15% | persisting midbody or chromatin mass ([1]; n=26): 15% | spindle with chr. scattered along length ([1]; n=26): 19% | spindle with ≦3 chr. out of place ([1]; n=26): 31% | MPF activity (histone H1 kinase) compared to oocytes cultured with TPEN alone (MPF activity): increased | CCNB1 protein levels (CCNB1): only partially restores; also recorded: only slightly increased
